The source of these data is patent publication US7879795B2, “Enhancement of tigecycline potency using efflux pump inhibitors” (Mpex Pharmaceuticals, Inc., priority 2004, dated 2011).

The nature of series [1]: In vitro stability in rat serum and tissue homogenates (LC/MS/MS). The series is classed as in vitro ADME. Here is the method: To test the stability of the compounds in vitro, samples were prepared and analyzed by LC/MS/MS according to the following procedure.
Homogenization: A chunk of fresh tissue was weighed and mixed with saline at 1:1 ratio (w/v) in a 12×75 mm polypropylene round bottom tube. The mixture was homogenized with a Polytron homogenizer (on ice, 3×10 seconds with 10 second intervals at the setting of 7).
Incubation and TCA-precipitation: An appropriate amount of a tissue homogenate was pre-warmed at 37° C. for 2 minutes in an Eppendorf tube. The compound to be tested was added to the tube to a final concentration of 2 μg/ml, mixed, and a 60 μl aliquot was immediately taken (as 0 hour sample) and mixed with 120 μl of 4% TCA (trichloroacetic acid) in an Eppendorf tube. The temperature of the tube containing the rest of the tissue sample was returned to 37° C. for incubation. Later, samples were taken as scheduled and mixed with TCA as described above. Plasma and lavage samples were directly incubated with the compounds without addition of saline and homogenization.
LC/MS/MS sample vial preparation: TCA-precipitated sample tubes were vortexed for 30 seconds, centrifuged in a microfuge at top speed (13.2 k rpm) for 5 minutes. The supernatant was collected. The pH was neutralized to about 3.5 with ammonium acetate buffer. The sample (45 μl) was transferred to a glass LC/MS/MS vial (Kimble, 11 mm, 1.5 ml) and 5 μl of an internal standard was added to a final concentration of 500 ng/ml. LC/MS/MS analysis was performed in Chemistry Department of San Diego State University.
LC/MS/MS protocol: Thermo-Finnigan TSQ Quantum triple sector mass spectrometer with electrospray (ESI) ionization was used to analyze the samples. The operation conditions were: Mobile phase of pH 3.00 water/formic acid: acetonitrile-methanol (45%:5%:50% by volume); Thermo-Keystone Betabasic C-18 column (2.1 mm×50 mm) operated at 0.100 mL/min.
Many proteases responsible for degrading EPI compounds are located in […]. Lysozymes typically have an acidic pH (about 4.8-5), whereas the pH in tissue homogenates that were prepared was higher (kidney, pH 6.8; liver, pH 6.6; and lung, pH 7.5). To test the effect of tissue homogenates closer to physiological conditions, the pH was lowered to about 6 by adding acetic acid to the tissue homogenates and compound stability was tested. FIG. 2 depicts the stability of compounds 1 and 3 at different pH. […] The pH-dependent degradation of compound 3 was especially evident in kidney homogenates.
FIG. 4 is a bar graph depicting the stability of compound 3 in the supernatant and pellet of kidney tissue homogenates.

Series [2] can be described thus: Stability in human kidney tissue preparations. Type of series: in vitro ADME. The conditions noted are these: in words. The text has this: The pattern of in vitro stability of compound 3 (stable in serum but unstable in tissues) observed in rodents was also reproduced using human kidney tissues or serum. FIG. 7 compares the in vitro stability of compounds 1 and 3 in human kidney tissue preparations.
FIG. 8 depicts formation of the metabolite, compound 67, in human kidney tissue. Concomitant with the disappearance of compound 3, generation of the expected metabolite of the presumed intralysosomal degradation, compound 67, was detected using human kidney.

Series [3] is described as follows: Tissue levels in rat six-hour after 8.4 mg/kg IV bolus. Type of series: in vivo. The conditions noted are these: in words. Here is the method: Tissue levels of compounds 1, 2, 3 and 4 were evaluated in kidney, liver and lung six-hour after 8.4 mg/kg IV bolus administration. FIG. 13 depicts the levels as a function of time.
Compound 67, which is the expected metabolite of proteolytic intracellular degradation of compound 3, was detected in rat tissues after IV infusion, confirming the tissue-specific degradation of compound 3 (Tables 9A, B).

Series [4] has as its system P. aeruginosa, PAM1723, overexpressing the MexAB-OprM efflux pump. The series can be described thus: Levofloxacin potentiation checkerboard assay (broth microdilution). The conditions noted are these: for in vitro levofloxacin potentiating activity: in words. Type of series: cell-based. Here is the method:
Stock solution was stored at −80° C.
The checkerboard assay was performed in microtiter plates. […] EPIs were diluted in the y axis, each row containing an equal concentration of an EPI. The result of these manipulations was that each well of the microtiter plate contains a unique combination of concentrations of the two agents. The assay was performed in MHB with a final bacterial inoculum of 5×10^5 CFU/ml (from an early-log phase culture). Microtiter plates were incubated during 20 h at 35° C. and were read using a microtiterplate reader (Molecular Devices) at 650 nm as well as visual observation using a microtiter plate-reading mirror.
On the technique in general: Broth dilution looks for growth in wells or tubes with falling amounts of substance.

The subject of series [5] is strain 29A2 of P. aeruginosa overexpressing MexAB-OprM efflux pump. Briefly: Neutropenic mice lung model of PA infection. Type of series: in vivo. The conditions noted are these: levofloxacin 30 mg/kg SQ plus EPI IP. As for the experimental part: Neutropenia was induced by cyclophosphamide 100 mg/kg IP on days 3 and 1 prior to infection. The strain 29A2 of P. aeruginosa overexpressing MexAB-OprM efflux pump was grown overnight in Mueller-Hinton Broth (MHB). The next day overnight culture was diluted in fresh MHB and was allowed to re-grow to ˜10^8 CFU/mL (OD600˜0.3). The culture was spun down, washed twice with phosphate buffered saline (PBS) and re-suspended in PBS to ˜4×10^7 CFU/mL. 50 μl of inoculum was used for intratracheal instillation of mice, which were anesthetized with sevoflourane/oxygen. […] Four mice from each treatment group were euthanized at various times after the start of treatment. The lungs were removed aseptically, homogenized in saline, and immediately plated to determine bacterial load (CFU/ml) in infected lungs. P. aeruginosa is plotted as a function of time in FIG. 20.

The nature of series [6]: Serum levels of compound 3 after administration of acylated forms in rats. The conditions noted are these: compound 5 8.4 mg/kg injected, compound 43 10 mg/kg two-hour infusion. Type of series: in vivo, rat. As for the experimental part: Rats were injected with compound 5 (8.4 mg/kg) and serum levels of the parent compound 3 were evaluated after extraction. The serum levels as a function of time are depicted in FIG. 16.
Rats were infused for two hours with compound 43 at 10 mg/kg and serum levels of the parent compound 3 were evaluated after extraction. FIG. 17 depicts the serum levels of compound 3 as a function of time.

Series [7] is described as follows: Acute toxicity, minimal lethal dose after IV bolus in mice. Type of series: in vivo, mouse. The conditions noted are these: IV bolus into tail vein, lethal for at least one of three mice. As for the experimental part: Acute toxicity was measured as minimal lethal dose (MLD). MLD is defined as a minimal concentration of a compound that has lethal effect for at least one mouse from the group of three mice after IV bolus injection into the mouse tail vein.

The test system of a further series is PAM1723. The conditions noted are these: summary of Table 4; in words. As for the experimental part: Stability in rat and human serum was also evaluated using a bioassay. 320 μg/ml of the test compound was treated with 50% serum for 4 hours.
Bioassays as described in Example 62 and Example 65 were used to evaluate the stability of various compounds in serum and rabbit kidney homogenates.

In series [8] the test system is P. aeruginosa strain PAM1723 overexpressing MexAB-OprM efflux pump. Briefly: Neutropenic mice thigh model of PA infection. The conditions noted are these: levofloxacin 30 mg/kg SQ, EPI 60 mg/kg IP, 2 hours post-infection. Type of series: in vivo. Here is the method:
Efficacy of the EPIs was evaluated in a Neutropenic Mice Thigh Model of P. aeruginosa Infection. Neutropenia was induced by cyclophosphamide 100 mg/kg IP on days 3 and 1 prior to infection. P. aeruginosa strain PAM1723 overexpressing MexAB-OprM efflux pump was grown overnight in Mueller-Hinton Broth (MHB). The next day, the overnight culture was diluted in fresh MHB and was allowed to re-grow to ˜10^8 CFU/mL (OD600˜0.3). The culture was spun down, washed twice with phosphate buffered saline (PBS) and re-suspend in PBS to ˜4×10^6 CFU/mL. Next, this culture was mixed 1:1 with 14% hog-gastric mucin in PBS to give a final inoculum of 2×10^6 CFU/mL. Infection was initiated with injection of 0.1 mL of inoculum (˜2×10^5 CFU/thigh) directly into both thighs of each mouse. Two mice from each treatment group were euthanized at various times after the start of treatment. The thighs were removed aseptically, homogenized in saline, and immediately plated to determine bacterial load (CFU/ml). Treatment was initiated 2 hours post infection.

For series [9] the following is noted: in vivo; cited from earlier work.

In the case of `NC(CCc1ccccc1)C(=O)Nc1cnc2ccccc2c1` (stereo in doubt) [Compound 67, 2-(S)-Amino-4-phenyl-N-quinolin-3-yl-butyramide], the “level of degradation product 67 formed from compound 3” value in series [1] (rat kidney homogenates, as a function of time) is “increased”. For the same compound, the “generation of metabolite 67 from compound 3 in human kidney” value in [2] is “detected”. In series [3], the “detection of metabolite 67 in rat tissues after IV administration of compound 3” value is “detected”.
For `NCCC[C@@H](N)C(=O)N[C@@H](CCc1ccccc1)C(=O)Nc1cnc2ccccc2c1` [Compound 4, 2-(R),5-Diamino-pentanoic acid [3-phenyl-1-(S)-(quinolin-3-ylcarbamoyl)-propyl]-amide], the “Antibiotic (levofloxacin) MIC in the presence of EPI” value in series [4] (EPI 0 μg/ml (levofloxacin alone)) turned out to be 2 µg/mL; in series [4] (EPI 1.25 μg/ml), 2 µg/mL; in [4] (EPI 5 μg/ml), 2 µg/mL; in [4] (EPI 10 μg/ml) it was 0.5 µg/mL; in series [4] (EPI 20 μg/ml), 0.06 µg/mL; in [4] (EPI 40 μg/ml), 0.06 µg/mL. Besides, the “Antibiotic (levofloxacin) MIC in the presence of EPI” value in series [4] (EPI 80 μg/ml) came out at 0.03 µg/mL; in [4] (EPI […]), 2 µg/mL. For the same compound, in [4] (EPI concentration necessary to increase susceptibility to levofloxacin eight-fold), the MPC8 amounted to 20 µg/mL. The “stability in supernatant of rat kidney tissue homogenates” value in series [1] (in words) is on record as “neither compound 1 nor compound 4 show any instability”. In addition, the “tissue levels at 6 hours after IV injection” value in [3] (rat kidney, liver and lung, 8.4 mg/kg IV bolus) is reported as “relatively high levels”.
Regarding `NCCC[C@H](NC(=O)C[C@H](N)C(=O)O)C(=O)N[C@H](CCc1ccccc1)C(=O)Nc1cnc2ccccc2c1` [Compound 5, 2-(S)-Amino-N-{4-amino-1-(S)-[3-phenyl-1-(R)-(quinolin-3-ylcarbamoyl)-propylcarbamoyl]-butyl}-succinamic acid], the “in vitro levofloxacin potentiating activity” value in [4] is “devoid of levofloxacin potentiating activity”. In addition, the “bacterial load in infected lungs, EPI with levofloxacin” value in series [5] is “efficacious”. The “metabolism in serum to produce compound 3” value in [6] is “readily metabolized”. The “MLD (minimal lethal dose)” value in series [7] was found to be 75 mg/kg.
On to `N[C@@H](CC(=O)O)C(=O)NCCC[C@H](N)C(=O)N[C@H](CCc1ccccc1)C(=O)Nc1cnc2ccccc2c1` [Compound 34, 3-(S)-Amino-N-{4-(S)-amino-4-[3-phenyl-1-(R)-(quinolin-3-ylcarbamoyl)-propylcarbamoyl]-butyl}-succinamic acid], for which the “stability in rat serum” value in the series with PAM1723 was “unstable in rat serum”. Besides, in series [7], the “MLD (minimal lethal dose)” value amounted to 50 mg/kg.
Regarding `N[C@@H](CC(=O)O)C(=O)NCCC[C@H](NC(=O)[C@@H](N)CC(=O)O)C(=O)N[C@H](CCc1ccccc1)C(=O)Nc1cnc2ccccc2c1` [Compound 43, 3-Amino-(S)—N-{4-(S)-(2-(3)-(S)-amino-3-carboxy-propionylamino)-4-[3-phenyl-1-(R)-(quinolin-3-ylcarbamoyl)-propylcarbamoyl]-butyl}-succinamic acid], in series [4], the “in vitro levofloxacin potentiating activity” value is recorded as “did not have in vitro levofloxacin potentiating activity”. The “bacterial load in thighs, EPI with levofloxacin versus levofloxacin alone” value in series [8] is given as “potentiated levofloxacin in vivo”. The “metabolism in serum to produce compound 3” value in [6] is given as “readily metabolized”. For the same compound, the “MLD (minimal lethal dose)” value in series [7] worked out at 150 mg/kg.
With `N=C(N)c1ccc(OCCCCCOc2ccc(C(=N)N)cc2)cc1` [pentamidine], the “incidence of kidney toxicity” value in series [9] is reported as “above 75%”.
